The text below walks through data of paper PMC4810358, “Applicability of the Rayleigh equation for enantioselective metabolism of chiral xenobiotics by microsomes, hepatocytes and in-vivo retention in rabbit tissues” (Scientific Reports, 2016).

The conditions of data set [1]: cited from earlier work; for first order half-life: hepatocytes from male Sprague-Dawley rats; for individual first order rate constant: myclobutanil, hepatocytes from male Sprague–Dawley rats.
Data set [2] can be described thus: de-methylation (enantioselective degradation) by human liver microsomes. The settings on record: HLM; for Overall first order kinetic constant, kc: racemate, 37 °C, 0–120 min; for Enantiomeric enrichment factor, εER: mean ± 95% confidence interval of Rayleigh slope, n = 3, NE = no enrichment. As to the method:
(§1) The reactions were initiated by the addition of 120 μl NADPH-regenerating system (100 μL of solution A and 20 μL of solution B) that were added after a 3-min pre-incubation of the incubation mixtures containing 10 μl of substrate (1 g/L), 50 μl human/rat hepatic microsomes (20 mg protein/ml) and […] sodium phosphate buffer, 0.1 M pH 7.4 final volume was 500 μl. The reactions were stopped at time intervals by cooling on ice and addition of 100 μl acetonitrile followed by the addition of 20 μL internal standards stock solution (0.1 g/L). After termination of the reaction 200 microliter sodium carbonate solution (1 M, pH 12) was added and samples were then vigorously shaken for 1 min and consequently extracted into 6 ml n-hexane/acetonitrile (98/2 vol/vol) using an Intelli mixer on 50 rpm for 5 min. after centrifugation for 10 min (6,000 rpm) the upper organic layer was collected and the procedure was repeated. The samples were eventually evaporated till dry under a gentle stream of nitrogen. The residue was dissolved in 200 microliter methanol and analyzed by HPLC-MS. These degradation studies were done in duplicates.
(§2) Control assays were run under the same conditions, with 200 μL insect control supersomes (5 mg protein/ml) used as a negative control, i.e containing no CYP450 but the same protein content (cytochrome b5), while 10 μl of Verapamil (1 g/L) and 50 μl human microsomes (20 mg protein/ml) was incubated for 30 min as a positive control.
(§3) The chiral separation method was based on methodology of Begnall et al.[62]. […] For all separations the column and autosampler were maintained at 25 °C, with an optimal chromatographic run time of 24 minutes, the injection volume was 10 μL. QTOF mass spectrometer equipped with an electrospray ionization source (Agilent G3251A Dual ESI) was used for chiral drug identification and quantification. Analysis was performed in positive mode with a capillary voltage potential of 4000 V; the nebulizer gas pressure was set to 40 psi and drying gas flow was 10 L/min, with a drying gas temperature of 300 °C. The fragmentor voltage was set at 140 V, and skimmer voltage was 65 V. Scan range was 50–1000 m/z, the other MS parameters remained at auto-tune conditions.
(§4) The enantiomeric ratios were expressed as the ER – the peak area of one enantiomer (the more abundant) divided by that of the other enantiomer.
Background: Liver microsomes are a subcellular fraction often used to study metabolism.

The nature of data set [3]: de-methylation (enantioselective degradation) by Sprague Dawley rat liver microsomes. It counts as in vitro ADME. The note with it: RLM-SD; for Overall first order kinetic constant, kc: racemate, 37 °C, 0–120 min; for Enantiomeric enrichment factor, εER: mean ± 95% confidence interval of Rayleigh slope, n = 3, NE = no enrichment. As to the method: as §1, §2, §3, §4
Data set [4] in a line: de-methylation (enantioselective degradation) by Wistar Han rat liver microsomes. It counts as in vitro ADME. The settings on record: RLM-W; for Overall first order kinetic constant, kc: racemate, 37 °C, 0–120 min; for Enantiomeric enrichment factor, εER: mean ± 95% confidence interval of Rayleigh slope, n = 3, NE = no enrichment. As to the method:
as §1, §2, §3, §4

Data set [5] can be described thus: de-methylation (enantioselective degradation) by Lewis rat liver microsomes. In kind it is in vitro ADME. The settings on record: RLM-L; for Overall first order kinetic constant, kc: racemate, 37 °C, 0–120 min; for Enantiomeric enrichment factor, εER: mean ± 95% confidence interval of Rayleigh slope, n = 3, NE = no enrichment. As for the experimental part:
as §1, §2, §3, §4

Data set [6] can be described thus: enantioselective metabolism in rat hepatocytes (reported studies). It counts as in vitro ADME. As to the method: (§5) In addition to the microsome studies, the Rayleigh equation was fitted to reported studies on biodegradation of chiral compounds using liver microsomes and hepatocytes for which there was sufficient data available. We focused on studies published on years 2011–2015 that reported on first order kinetics and/or provided concentration - time profiles of the individual enantiomers after incubation of the racemate with the metabolizer, i.e. systems analyzed by approach II in the introduction.
Wang et al.[24] studied the enantioselective metabolism of the fungicide hexaconazole as well, they used male Sprague–Dawley rat hepatocytes. […] In a second test case, Wang et al.[52] studied the degradation of the fungicide myclobutanil in hepatocytes from male Sprague–Dawley rats.

For data set [7] the following is noted: loach liver microsomes; cited from earlier work.
On the set-up of data set [8]: method as in PMID 24027055. The settings on record: male Sprague–Dawley rat liver microsomes; cited from earlier work.
The nature of data set [9]: in vivo enantioselective behaviour in rabbit plasma and tissues after intravenous racemate (Sun et al.). The text has this:
For example, Sun et al.[26] have reviewed the enantioselective behavior of the fungicide myclobutanil enantiomers in variant rabbit tissues following intravenous administration of the racemic fungicide. Using the plasma concentration-time curves of the two enantiomers (presented in Fig. 1A in ref. [26]) we obtained the enantiomeric enrichment factor of −28 ± 5 (R^2 = 0.97). Analysis of the distribution of myclobutanil in various tissues, presented in Fig. 3 in ref. [26], obtained the enantiomeric enrichment factors of −33 ± 16 (R^2 = 0.92) for the liver, −20 ± 6 (R^2 = 0.97) for the brain, −32 ± 16 (R^2 = 0.89) for the kidney and −21 ± 6 (R^2 = 0.97) for the muscle. […] This quantitative ranking is obscured by the large number of time trace data points in the original presentation. Another example can be presented by the study of Kong et al.[25] reporting on the stereoselective metabolism of the alpha blocker doxazosin (DOX) in vivo in male Sprague–Dawley rats.

Data set [10] is described as follows: stereoselective degradation of metalaxyl in hepatic microsomes (Zhang et al.). In kind it is in vitro ADME, rat and rabbit. The settings on record: for individual degradation constant: calculated from concentration-time data of Fig. 3a in ref 22, R^2 = 0.98. As to the method: as §5
Details of data set [11]: method as in PMID 25820472. The note with it: rat liver microsomes; cited from earlier work.
For data set [12] the following is noted: hepatic microsomes; cited from earlier work.
Data set [13] can be described thus: de-methylation by liver microsomes, statements pooled over all microsome sources. The settings on record: through all the incubations with the various microsomes. It counts as in vitro ADME, human and rat. As to the method: as §1, with “The samples were eventually evaporated till dry under a gentle stream of nitrogen.” left out, “These degradation studies were done in duplicates.” left out
The chiral separation method was based on methodology of Begnall et al.[62]. […] QTOF mass spectrometer equipped with an electrospray ionization source (Agilent G3251A Dual ESI) was used for chiral drug identification and quantification. […]
as §4

Values joined by “and” are separate entries in the source; they are usually repeats but may differ in a detail not shown here. Equal values may be shown once. Read-outs that look alike come from different tables or passages of the source.

For `CCCCCCC(C)OC(=O)COc1nc(F)c(Cl)c(N)c1Cl` (single isomer, unassigned; (-)) [(−) FPMH], the first order half-life in data set [1] (fluroxypyr methylheptyl ester) is given as 13.1 min.
For the compound `CCCCC(C#N)(Cn1cncn1)c1ccc(Cl)cc1` (single isomer, unassigned; (+)) [(+)-myclobutanil], the “individual first order rate constant” value in data set [1] was 0.065 h⁻¹.
Regarding `CN(C)CCCC1(c2ccc(F)cc2)OCc2cc(C#N)ccc21` (racemic) [CTM, (R,S)-citalopram], the “Overall first order kinetic constant, kc” value in data set [2] worked out at 0.007 min⁻¹; in data set [3], 0.02 min⁻¹; in data set [4], 0.07 min⁻¹; in [5] it was 0.007 min⁻¹. The “Enantiomeric enrichment factor, εER” value in [2] is −36 ± 3 (0.95) %; in data set [3] it was −10 ± 4 (0.92) %; in data set [4] it was −53 ± 3 (0.95) %.
`CCOC1Oc2ccc(OS(C)(=O)=O)cc2C1(C)C` (stereo not drawn) [ETO, ethofumesate]: the enantiomeric enrichment factor in data set [6] (ETO, reconstructed from concentration–time curves of Fig. 2 in ref 53, R^2 = 0.96) was −75 ± 11%.
Consider `COC(=O)[C@@H](C)Oc1ccc(Oc2ccc(Cl)cc2Cl)cc1` [(R)-DM], for which the “individual first order degradation rate constant” value in data set [7] is 0.0346 min⁻¹.
In the case of `CCCCC(O)(Cn1cncn1)c1ccc(Cl)cc1Cl` (single isomer, unassigned; (+)) [(+)-hexaconazole], in data set [8], the “individual first order degradation rate constant” value is 0.09324 min⁻¹.
For the compound `CN(C)CC(c1ccc(O)cc1)C1(O)CCCCC1` (racemic) [O-DMV, (R,S)-O-desmethylvanlafaxine], the “Overall first order kinetic constant, kc” value in [2] turned out to be 0.025 min⁻¹; in [3], 0.009 min⁻¹; in data set [4] it was 0.02 min⁻¹; in data set [5] it was 0.007 min⁻¹. For the same compound, the “Enantiomeric enrichment factor, εER” value in data set [2] was −7 ± 1 (0.98) %; in data set [3] it was −9 ± 1 (0.96) %; in data set [4], −4 ± 1% and −4 ± 1 (0.91) %; in [5], −59 ± 2 (0.94) %.
In the case of `CCCCC(C#N)(Cn1cncn1)c1ccc(Cl)cc1` (stereo not drawn) [myclobutanil], the enantiomeric enrichment factor is given as −24 ± 2% in data set [6] (myclobutanil, reconstructed from Fig. 3a in ref 52, R^2 = 0.97); −20 ± 6 in data set [9] (rabbit brain, from Fig. 3 in ref 26, R^2 = 0.97); −32 ± 16 in [9] (rabbit kidney, from Fig. 3 in ref 26, R^2 = 0.89); −33 ± 16 in data set [9] (rabbit liver, from Fig. 3 in ref 26, R^2 = 0.92); −21 ± 6 in data set [9] (rabbit muscle, from Fig. 3 in ref 26, R^2 = 0.97); −28 ± 5 in [9] (rabbit plasma, intravenous racemate, from Fig. 1A in ref 26, R^2 = 0.97). The “decay kinetics / adherence to the Rayleigh law” value in [9] (rabbits' hearts and fats, data of ref 26) is reported as “does not follow linear kinetics”.
On to `COC(=O)[C@H](C)Oc1ccc(Oc2ccc(Cl)cc2Cl)cc1` [(S)-DM], for which the “individual first order degradation rate constant” value in [7] is 0.1904 min⁻¹.
Regarding `CCCCCCC(C)OC(=O)COc1nc(F)c(Cl)c(N)c1Cl` (single isomer, unassigned; (+)) [(+) FPMH], in [1] (fluroxypyr methylheptyl ester), the first order half-life was 5.1 min.
In the case of `CCCCC(C#N)(Cn1cncn1)c1ccc(Cl)cc1` (single isomer, unassigned; (-)) [(−)-myclobutanil], the “individual first order rate constant” value in data set [1] is 0.046 h⁻¹.
On to `CCCCC(O)(Cn1cncn1)c1ccc(Cl)cc1Cl` (single isomer, unassigned; (-)) [(−)-hexaconazole], for which, in data set [8], the “individual first order degradation rate constant” value was 0.06804 min⁻¹.
As for `COCC(=O)N(c1c(C)cccc1C)C(C)C(=O)OC` (stereo not drawn) [metalaxyl], the “Enantiomeric enrichment factor, εER” value in data set [10] (reconstructed from data of Fig. 3a in ref 22, R^2 = 0.94) is listed as −78 ± 14%.
Turning to `CCOC1Oc2ccc(OS(C)(=O)=O)cc2C1(C)C` (single isomer, unassigned; (+)) [(+) ETO], the first order half-life in [1] (ethofumesate) is 120 min.
Consider `CC(C)(C)[C@H](O)[C@H](Cc1ccc(Cl)cc1)n1cncn1` [(2S, 3S)-paclobutrazol], for which the “individual first order degradation rate constant” value in data set [11] is 0.0634 min⁻¹.
Consider `COCC(=O)N(c1c(C)cccc1C)[C@@H](C)C(=O)OC` [(+)-S-MX], for which, in data set [10], the individual degradation constant was 0.0864 min⁻¹. Also, the half-life (in general, the time needed for the level to fall by half in the phase considered) in data set [12] is reported as 7.71 min.
Regarding `CCOC1Oc2ccc(OS(C)(=O)=O)cc2C1(C)C` (single isomer, unassigned; (-)) [(−) ETO], in [1] (ethofumesate), the first order half-life is 246 min.
As to `COCC(=O)N(c1c(C)cccc1C)[C@H](C)C(=O)OC` [(−)-R-MX], in [10], the individual degradation constant is 0.0415 min⁻¹. Also, the half-life in [12] is 15.58 min.
With `COc1ccc(C(CN(C)C)C2(O)CCCCC2)cc1` (racemic) [VNF, (R,S)-venlafaxine], the “Overall first order kinetic constant, kc” value in data set [2] was 0.01 min⁻¹; in data set [3], 0.03 min⁻¹; in data set [4], 0.05 min⁻¹; in data set [5], 0.009 min⁻¹. Besides, in [13], the “enantiomeric ratio, ER” value was determined as 1.1 ± 0.08.
Regarding `CN1CCN2c3ccccc3Cc3ccccc3C2C1` (racemic) [MNS, (R,S)-mianserin], the “Overall first order kinetic constant, kc” value in [2] stood at 0.004 min⁻¹; in data set [3] it was 0.02 min⁻¹; in [4] it was 0.008 min⁻¹; in data set [5] it was 0.03 min⁻¹. The “Enantiomeric enrichment factor, εER” value in data set [2] is −237 ± 29% and −237 ± 29 (0.92) %; in data set [3] it was −11 ± 6 (0.92) %; in data set [4] it was −38 ± 5 (0.92) %; in data set [5], −53 ± 12 (0.98) %.
Consider `CC(C)(C)[C@@H](O)[C@@H](Cc1ccc(Cl)cc1)n1cncn1` [(2R, 3R)-paclobutraz], for which the “individual first order degradation rate constant” value in data set [11] is 0.0373 min⁻¹.
For `CNCCC(Oc1ccc(C(F)(F)F)cc1)c1ccccc1` (racemic) [FLX, (R,S)-fluoxetine], the “Overall first order kinetic constant, kc” value in data set [2] was 0.01 min⁻¹; in data set [3], 0.02 min⁻¹; in data set [4], 0.06 min⁻¹; in [5], 0.04 min⁻¹.
